Assay results taken from patent US4474806A, “Sulfonyl or carbonyl inositol derivatives useful as anti-inflammatory/analgesic agents” (Merck & Co., Inc., priority 1982, dated 1984).

Tests used:
[1] = system: Phosphatidyl inositol-specific phospholipase C; assay: Phosphatidyl inositol-specific phospholipase C assay with sonicated human platelets, release of water-soluble 3H-inositol counts; assay type: biochemical; conditions: 250 μm PI, 10 minutes
Protocol: This invention also relates to a method of treating inflammation in patients using a compound of Formula (I) as the active constituent.
A. Protocol - Phosphatidyl inositol-specific
phospholipase C assays. The assays were performed as
follows: A mixture of PI (Sigma) and
(^3 H--inositol)-PI in CHCl3 are blown to dryness
under N2 and sonicated into a buffer containing DOC
and CaCl2 so that the final concentrations in each
0.5 mg/ml DOC containing an appropriate amount of
in 50 mM Hepes, 100 mM NaCl, 0.5 mg/ml BSA pH 7.
An aliquot of sonicated human platelets,
5 × 10^9 /ml, is added; the reaction is stopped after
10 minutes with a chloroform/methanol/H2 O solution
and the upper water phase is counted to detect
water-soluble inositol counts. The pH was checked
during each assay using pH paper to verify that none
of the compounds affected this parameter.

phospholipase C = conditions: background statement, no concentration given; cited from earlier work

CCCCCCCCCCCCCCCC(=O)OC1C(O)C(O)C(O)C(O)C1O (stereo not shown) [myo-inositol-5 (or 6)-palmitate]
% Inhibition (specific phospholipase C inhibition) ([1]; Conc. 0.122 mM): 7% | % Inhibition (specific phospholipase C inhibition) ([1]; Conc. 1.22 mM): 55%

CCCCCCCCCCCCNC(=O)OC1C(O)C(O)C(O)C(O)C1O (stereo not shown) [myo-inositol-6 (or 5)-dodecanecarbamate]
% Inhibition (specific phospholipase C inhibition) ([1]; Conc. 0.8 mM): 16%

c1ccc2c(c1)Nc1ccccc1S2 [phenothiazine]
inhibition of phospholipase C (phospholipase C): inhibited
